Test results as given in ChEMBL document CHEMBL6182949 (J Med Chem, 2025).
Activity calls are given as the source filed them. The rule behind the calls is not given here.

Experiments:
[1] = Metabolic stability in mouse liver microsome assessed as half life at 1 uM measured up to 60 mins in presence of NADPH by LC-MS/MS analysis; type: ADME; settings: liver microsomes
[2] = Plasma protein binding in human assessed as unbound fraction incubated for 2 hrs by rapid equilibrium dialysis; type: ADME, cell-free
Mus musculus [3] = experiment: Anti-psoriasis effect in IMQ-induced C57BL/6 mouse assessed as reduction in ear thickness at 10 mg/kg administered topically twice daily for 6 days and measured after 24 hrs; type: functional, organism-based; settings: time 7.0 day
Mus musculus [4] = experiment: Anti-arthritic activity against collagen-induced arthritis DBA/1 mouse model assessed as improvement in delta paw volume at 30 mg/kg, po administered for 14 days […]; type: functional, organism-based; settings: time 14.0 day
CYP1A2 = target: T1, CYP1A2 (Homo sapiens, UniProt P05177); experiment: Inhibition of CYP1A2 in human liver microsome using phenacetin as substrate at 10 uM preincubated for 5 mins followed by NADPH addition and measured after 20 mins by LC-MS/MS analysis relative to control; type: ADME; settings: human liver microsomes, probe phenacetin, time 25 min
T1 sequence (P05177 whole entry): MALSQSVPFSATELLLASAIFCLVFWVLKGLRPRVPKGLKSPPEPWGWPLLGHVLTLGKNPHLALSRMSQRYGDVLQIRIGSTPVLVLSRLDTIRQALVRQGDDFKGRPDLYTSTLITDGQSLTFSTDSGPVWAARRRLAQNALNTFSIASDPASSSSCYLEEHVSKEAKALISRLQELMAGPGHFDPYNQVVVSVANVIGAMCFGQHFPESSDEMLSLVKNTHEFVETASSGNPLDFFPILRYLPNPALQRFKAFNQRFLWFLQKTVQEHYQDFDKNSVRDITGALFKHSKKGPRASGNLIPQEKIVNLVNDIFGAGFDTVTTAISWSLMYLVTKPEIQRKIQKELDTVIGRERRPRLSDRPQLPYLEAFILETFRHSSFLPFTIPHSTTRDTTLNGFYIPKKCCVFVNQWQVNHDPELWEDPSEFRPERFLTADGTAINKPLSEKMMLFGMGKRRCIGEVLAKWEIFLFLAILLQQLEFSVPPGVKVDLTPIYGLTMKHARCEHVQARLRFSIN

CYP2D6 = CYP2D6 (Homo sapiens, UniProt P10635); experiment: Inhibition of CYP2D6 in human liver microsome using dextromethorphan as substrate at 10 uM preincubated for 5 mins followed by NADPH addition and measured after 10 mins by LC-MS/MS analysis relative to control; type: ADME; settings: human liver microsomes, probe dextromethorphan, time 15 min
[5] = target: Protein cereblon/Interleukin-1 receptor-associated kinase 4 (Homo sapiens, UniProt Q9NWZ3+Q96SW2); experiment: PROTAC activity at CRBN/IRAK4 in human THP-1 cells assessed as induction of IRAK4 degradation incubated for 24 hrs by HiBiT lytic reagent based analysis relative to control; type: cell-based
CYP2C9 = CYP2C9 (Homo sapiens, UniProt P11712); experiment: Inhibition of CYP2C9 in human liver microsome using diclofenac as substrate at 10 uM preincubated for 5 mins followed by NADPH addition and measured after 10 mins by LC-MS/MS analysis relative to control; type: ADME; settings: human liver microsomes, probe diclofenac, time 15 min
[6] = Permeability across apical to basal side in human Caco-2 cells incubated for 120 mins by LC-MS/MS analysis; type: ADME, cell-based; settings: read-out: permeability
[7] = AUClast in male C57BL/6 mouse at 2 mg/kg, iv measured up to 24 hrs by LC-MS/MS analysis; type: ADME, organism-based; settings: in vivo
[8] = Metabolic stability human hepatocyte assessed as half life at 1 uM measured up to 120 mins by LC-MS/MS analysis; type: ADME, cell-based; settings: hepatocytes
[9] = Clearance in male C57BL/6 mouse at 2 mg/kg, iv measured up to 24 hrs by LC-MS/MS analysis; type: ADME, organism-based; settings: in vivo
[10] = Inhibition of LPS-stimulated IL-6 release in human PBMC cells; type: functional, cell-based
CYP2C8 = target: T2, CYP2C8 (Homo sapiens, UniProt P10632); experiment: Inhibition of CYP2C8 in human liver microsome using amodiaquine as substrate at 10 uM preincubated for 5 mins followed by NADPH addition and measured after 5 mins by LC-MS/MS analysis relative to control; type: ADME; settings: human liver microsomes, probe amodiaquine, time 10 min
T2 sequence (P10632 whole entry): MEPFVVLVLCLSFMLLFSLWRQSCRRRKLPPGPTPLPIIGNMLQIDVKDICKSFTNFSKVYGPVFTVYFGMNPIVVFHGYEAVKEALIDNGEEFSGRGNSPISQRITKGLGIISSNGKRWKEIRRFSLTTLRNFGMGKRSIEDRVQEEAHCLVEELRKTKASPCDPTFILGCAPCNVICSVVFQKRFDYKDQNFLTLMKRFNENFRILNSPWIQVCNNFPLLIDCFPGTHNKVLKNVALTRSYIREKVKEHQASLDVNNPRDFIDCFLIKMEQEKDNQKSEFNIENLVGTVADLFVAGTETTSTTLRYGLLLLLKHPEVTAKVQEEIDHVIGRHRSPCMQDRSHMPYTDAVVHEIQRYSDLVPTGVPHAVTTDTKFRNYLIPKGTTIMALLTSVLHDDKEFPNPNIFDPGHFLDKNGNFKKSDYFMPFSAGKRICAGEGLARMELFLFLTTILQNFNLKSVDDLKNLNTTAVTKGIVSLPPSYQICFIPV

CYP2B6 = target: T3, CYP2B6 (Homo sapiens, UniProt P20813); experiment: Inhibition of CYP2B6 in human liver microsome using bupropion as substrate at 10 uM preincubated for 5 mins followed by NADPH addition and measured after 10 mins by LC-MS/MS analysis relative to control; type: ADME; settings: human liver microsomes, probe bupropion, time 15 min
T3 sequence (P20813 whole entry): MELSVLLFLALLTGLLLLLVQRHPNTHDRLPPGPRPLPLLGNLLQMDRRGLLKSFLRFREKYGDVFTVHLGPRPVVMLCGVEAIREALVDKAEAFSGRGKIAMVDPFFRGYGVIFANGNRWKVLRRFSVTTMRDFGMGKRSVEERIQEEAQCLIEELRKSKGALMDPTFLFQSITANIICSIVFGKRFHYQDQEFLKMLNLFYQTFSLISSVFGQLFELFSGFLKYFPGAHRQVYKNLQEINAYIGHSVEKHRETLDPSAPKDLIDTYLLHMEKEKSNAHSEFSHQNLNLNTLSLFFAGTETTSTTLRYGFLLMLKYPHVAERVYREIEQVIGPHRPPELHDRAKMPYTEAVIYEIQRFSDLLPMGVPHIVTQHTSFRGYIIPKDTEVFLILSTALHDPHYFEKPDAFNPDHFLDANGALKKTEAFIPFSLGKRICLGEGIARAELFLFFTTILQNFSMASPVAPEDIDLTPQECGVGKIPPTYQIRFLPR

[11] = target: Protein cereblon/Sal-like protein 4 (Homo sapiens) (UniProt Q96SW2+Q9UJQ4); experiment: PROTAC activity at CRBN/SALL4 in human PBMC cells assessed as induction of SALL4 degradation at 1 uM by Western blot analysis; type: cell-based
[12] = Cmax in male C57BL/6 mouse at 10 mg/kg, po measured up to 24 hrs by LC-MS/MS analysis; type: ADME, organism-based; settings: in vivo
[13] = Oral bioavailability in male C57BL/6 mouse at 10 mg/kg measured up to 24 hrs by LC-MS/MS analysis; type: ADME, organism-based; settings: in vivo

Sequence of Protein cereblon/Sal-like protein 4 (Homo sapiens) (Q96SW2 whole entry, looked up): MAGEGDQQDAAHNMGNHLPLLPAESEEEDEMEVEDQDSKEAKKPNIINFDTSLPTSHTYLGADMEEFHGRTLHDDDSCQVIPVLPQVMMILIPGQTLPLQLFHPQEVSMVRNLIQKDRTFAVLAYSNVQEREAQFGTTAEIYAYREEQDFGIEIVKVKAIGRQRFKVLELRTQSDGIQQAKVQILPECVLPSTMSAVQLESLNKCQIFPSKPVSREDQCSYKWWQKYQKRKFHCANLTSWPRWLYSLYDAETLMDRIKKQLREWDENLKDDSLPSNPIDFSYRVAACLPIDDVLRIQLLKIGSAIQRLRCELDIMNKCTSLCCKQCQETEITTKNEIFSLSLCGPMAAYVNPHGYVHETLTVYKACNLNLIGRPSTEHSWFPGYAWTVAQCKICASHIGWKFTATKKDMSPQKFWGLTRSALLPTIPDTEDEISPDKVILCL
Sequence of Protein cereblon/Sal-like protein 4 (Homo sapiens) (Q9UJQ4 whole entry, looked up): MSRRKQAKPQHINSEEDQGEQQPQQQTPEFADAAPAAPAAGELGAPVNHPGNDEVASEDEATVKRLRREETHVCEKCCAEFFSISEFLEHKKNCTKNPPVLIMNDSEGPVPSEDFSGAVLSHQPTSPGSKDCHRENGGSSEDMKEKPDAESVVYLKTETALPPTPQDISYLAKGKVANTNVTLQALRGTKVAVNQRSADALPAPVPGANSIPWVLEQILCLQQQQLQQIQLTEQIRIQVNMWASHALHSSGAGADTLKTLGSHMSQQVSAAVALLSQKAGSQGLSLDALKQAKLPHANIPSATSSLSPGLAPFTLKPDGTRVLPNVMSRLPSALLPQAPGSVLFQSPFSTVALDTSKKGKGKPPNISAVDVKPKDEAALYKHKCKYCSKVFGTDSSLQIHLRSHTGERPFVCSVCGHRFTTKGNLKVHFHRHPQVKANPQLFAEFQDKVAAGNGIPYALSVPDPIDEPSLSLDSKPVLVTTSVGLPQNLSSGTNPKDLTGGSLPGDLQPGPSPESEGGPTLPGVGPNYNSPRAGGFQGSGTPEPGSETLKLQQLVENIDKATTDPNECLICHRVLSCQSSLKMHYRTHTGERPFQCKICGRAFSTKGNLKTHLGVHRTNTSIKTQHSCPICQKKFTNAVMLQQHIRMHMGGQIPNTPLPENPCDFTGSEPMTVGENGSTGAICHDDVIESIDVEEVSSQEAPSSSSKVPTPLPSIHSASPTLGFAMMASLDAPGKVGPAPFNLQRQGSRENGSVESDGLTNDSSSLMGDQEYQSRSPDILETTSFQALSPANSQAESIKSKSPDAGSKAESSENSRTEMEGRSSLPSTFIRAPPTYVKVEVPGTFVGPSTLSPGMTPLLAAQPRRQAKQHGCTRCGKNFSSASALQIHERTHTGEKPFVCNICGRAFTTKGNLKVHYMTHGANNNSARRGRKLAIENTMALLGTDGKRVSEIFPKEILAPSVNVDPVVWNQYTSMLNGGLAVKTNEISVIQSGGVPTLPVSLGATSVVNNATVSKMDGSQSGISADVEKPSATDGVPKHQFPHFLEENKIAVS
Sequence of Protein cereblon/Interleukin-1 receptor-associated kinase 4 (Q96SW2 whole entry, looked up): as the sequence (Q96SW2 whole entry, looked up) above
Sequence of Protein cereblon/Interleukin-1 receptor-associated kinase 4 (Q9NWZ3 whole entry, looked up): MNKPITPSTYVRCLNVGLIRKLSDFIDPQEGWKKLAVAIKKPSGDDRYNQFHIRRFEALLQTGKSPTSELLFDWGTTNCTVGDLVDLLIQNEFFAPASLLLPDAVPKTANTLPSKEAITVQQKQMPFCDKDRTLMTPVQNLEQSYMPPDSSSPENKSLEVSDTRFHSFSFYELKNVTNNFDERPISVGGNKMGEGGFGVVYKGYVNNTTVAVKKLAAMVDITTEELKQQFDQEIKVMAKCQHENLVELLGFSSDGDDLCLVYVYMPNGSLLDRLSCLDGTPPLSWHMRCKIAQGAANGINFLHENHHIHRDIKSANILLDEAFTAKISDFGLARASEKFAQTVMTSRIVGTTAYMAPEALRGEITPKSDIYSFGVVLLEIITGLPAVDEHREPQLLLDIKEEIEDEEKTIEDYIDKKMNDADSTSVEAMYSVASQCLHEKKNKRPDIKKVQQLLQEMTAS
Sequence of CYP2C9 (P11712 whole entry): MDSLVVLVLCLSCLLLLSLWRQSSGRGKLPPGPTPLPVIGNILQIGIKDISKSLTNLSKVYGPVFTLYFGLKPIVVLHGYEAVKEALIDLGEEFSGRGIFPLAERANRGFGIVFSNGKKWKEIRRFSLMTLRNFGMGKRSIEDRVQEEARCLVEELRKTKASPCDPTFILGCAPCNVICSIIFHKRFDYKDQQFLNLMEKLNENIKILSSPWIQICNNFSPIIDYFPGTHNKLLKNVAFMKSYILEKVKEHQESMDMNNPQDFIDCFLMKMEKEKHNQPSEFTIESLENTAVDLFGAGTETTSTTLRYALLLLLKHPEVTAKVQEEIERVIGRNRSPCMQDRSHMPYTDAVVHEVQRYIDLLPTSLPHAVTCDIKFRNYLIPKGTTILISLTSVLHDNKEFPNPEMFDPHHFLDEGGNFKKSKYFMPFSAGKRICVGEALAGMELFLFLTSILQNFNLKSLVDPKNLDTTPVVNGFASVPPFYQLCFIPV
Sequence of CYP2D6 (P10635 whole entry): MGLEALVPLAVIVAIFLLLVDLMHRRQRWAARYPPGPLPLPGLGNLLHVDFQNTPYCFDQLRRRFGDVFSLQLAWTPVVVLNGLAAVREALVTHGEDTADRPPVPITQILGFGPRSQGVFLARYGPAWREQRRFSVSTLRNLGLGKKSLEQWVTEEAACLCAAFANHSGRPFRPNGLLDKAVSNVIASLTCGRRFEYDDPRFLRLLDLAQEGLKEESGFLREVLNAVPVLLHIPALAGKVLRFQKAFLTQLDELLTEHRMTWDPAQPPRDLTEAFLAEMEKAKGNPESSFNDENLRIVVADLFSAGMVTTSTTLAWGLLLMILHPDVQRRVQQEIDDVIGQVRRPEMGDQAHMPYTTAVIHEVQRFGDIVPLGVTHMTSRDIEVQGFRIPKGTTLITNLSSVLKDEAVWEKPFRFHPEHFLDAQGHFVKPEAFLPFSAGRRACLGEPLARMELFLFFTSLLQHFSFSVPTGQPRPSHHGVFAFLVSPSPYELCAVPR

**Q.** With `Cn1c(=O)n(C2CCC(=O)NC2=O)c2cccc(C#CCO[C@H]3CC[C@H](CN4CCC5(CC4)Cc4cc(NC(=O)c6coc7cccnc67)c(N6CCC(CO)CC6)cc4O5)CC3)c21` (stereo partly drawn) as the molecule, how does the half-life at 1 µM [1] read?
**A.** 1.52 h

**Q.** What about the Fu [2] of the same molecule?
**A.** < 0.08%

**Q.** What about the Activity (Mus musculus [3]) of the same molecule?
**A.** Active

**Q.** What about the Activity (Mus musculus [4]) of the same molecule?
**A.** Active

**Q.** And the inhibition at 20 min, 10 µM (CYP1A2)?
**A.** 8.32%

**Q.** And the inhibition at 10 min, 10 µM (CYP2D6)?
**A.** 13.8%

**Q.** And the Emax [5]?
**A.** 94%

**Q.** And the inhibition at 10 min, 10 µM (CYP2C9)?
**A.** 13.9%

**Q.** And the Papp A→B at 2 h [6]?
**A.** 0.09 ×10⁻⁶ cm/s

**Q.** And the AUC(0-t) at 24 h [7]?
**A.** 10600 ng·h/mL

**Q.** What about the half-life at 1 µM [8] of the same molecule?
**A.** 2.5 h

**Q.** And the clearance [9]?
**A.** 3.13 mL/min/kg

**Q.** What about the IC50 [10] of the same molecule?
**A.** 16.4 nM

**Q.** And the inhibition at 5 min, 10 µM (CYP2C8)?
**A.** 12.4%

**Q.** And the inhibition at 10 min, 10 µM (CYP2B6)?
**A.** 0.13%

**Q.** And the Activity [11]?
**A.** inactive

**Q.** And the Cmax [12]?
**A.** 1070 ng/mL

**Q.** What about the bioavailability [13] of the same molecule?
**A.** 45%
